Series [1] concerns Human muscle rhabdomyosarcoma (RMS) cell line (ATCC CCL-136). Kind of series: MTT cell proliferation (cytotoxicity) assay on RMS cells. The class given is cell-based. The settings on record: for IC50: MTT, 24 h incubation with sample.
Series [2] in a line: MTT cytotoxicity assay on noncancerous LLC-PK1 cells. The class given is cell-based, Pig. The settings on record: pig, LLC-PK1 pig kidney epithelial cells, read-out: % Cell Viability on Noncancer LLC-PK1 cells. The protocol:
(§1) Pig Kidney Epithelial (LLC-PK1) cell line (ATCC® CL-101™) was a generous gift of Prof. Jeong Hill Park, Research Institute of Pharmaceutical Science (College of Pharmacy, Seoul National University, Seoul 151-172, Korea).
(§2) RMS or LLC-PK1 cells were seeded and cultured in EMEM medium (Gibco, Waltham, MA, USA) supplemented with 10% fetal calf serum (FCS) (Gibco), 2 mM L-glutamine, 100 IU/mL penicillin and 100 µg/mL streptomycin (Sigma-Aldrich, St. Louis, MO, USA) in a humidified atmosphere of 5% CO2 at 37 °C.
(§3) The samples were dissolved in dimethyl sulfoxide (DMSO) at 10 mM and then diluted with culture medium to get three concentrations of 100; 50; 10 µM or 25; 12.5; 2.5 µM for cell proliferation assays. […] DMSO at different concentrations or was used as a blank control. Paclitaxel (Anzatax®, Mayne Pharma, Australia) was used as the reference compound at the concentration of 1, 5 and 10 µM (directly dissolved in culture medium).
(§4) The cells were cells were seeded in 96-well plates at 4.2 × 10^4 cell/cm^2. After 24 h of incubation at 37 °C, 5% CO2, 100 μL of chalcone samples at tested concentrations, reference compound, and blank control (DMSO) was added and incubated for 24 hours at 37 °C, 5% CO2.
(§5) Cell viability was evaluated as mitochondrial succinate dehydrogenase (SDH) activity, a marker of viable cells, using MTT test as described by Denizot and Lang. Briefly, SDH activity was detected after 3 hours incubation in culture medium without FCS containing 0.05 mg/mL MTT (3-4,5-dimethyl-thiazol-2-yl-2,5 diphenyl-tetrazolium bromide, Sigma-Aldrich), which is converted into formazan dissolved in acidified isopropanol (Merck, Darmstadt, Germany) by agitation for 10 min at room temperature. The produced purple solution was spectrophotometrically measured at 570 nm on Multiskan™ FC microplate Photometer (Thermo Scientific, Waltham, MA, USA).
(§6) Each assay was done in triplicate and the standard deviation of absorbance was less than 10% of the mean. The results were expressed as Mean + SD of six cultures of one representative experiment and statistically analyzed by Mann-Whitney test with SPSS 22.0 for Windows software. Threshold of significance was set at p < 0.05.
(§7) The IC50 values were calculated based on the linear regression between the concentrations of testing compound and the inhibition percentages of cells. The chalcone compounds with significant potential against RMS cells (IC50 < 20 μM) were then tested for their toxicity on LLC-PK1 cells.
In general terms: Formazan colour is commonly taken as a measure of viable cells.

Series [3] has as its system Pig Kidney Epithelial (LLC-PK1) cell line (ATCC CL-101). Described as above. The class given is cell-based. As to conditions: LLC-PK1 cells. As for the experimental part: as §1, §2, §3, §4, §5, §6, §7
Series [4] in a line: MTT cytotoxicity assay on noncancerous LLC-PK1 cells. As to conditions: pig, LLC-PK1 pig kidney epithelial cells, read-out: % Cell Viability on Noncancer LLC-PK1 cells. The class given is cell-based.

Read-outs that look alike come from different tables or passages of the source.

17 compounds from article PMC6273843, “Synthesis and Selective Cytotoxic Activities on Rhabdomyosarcoma and Noncancerous Cells of Some Heterocyclic Chalcones” (Molecules, 2016) can be followed below.

As a reminder, the IC50 is the point on the concentration scale where inhibition reaches its midpoint. `O=C(/C=C/c1ccccc1O)c1cccs1` [Compound 11] returned an IC50 in series [1] (Homo sapiens, 24 h) of 48.8 ± 2.42 µM.
In general, viability refers to a read-out of living cells in per cent, often relative to untreated cells. `COc1cc(/C=C/C(=O)c2ccccn2)cc(OC)c1OC` [Compound 16]: the half-inhibitory concentration (IC50) in series [1] (Homo sapiens, 24 h) is less than 20 µM. The compound also yielded an IC50 in series [1] of 19.6 ± 1.04 µM. Further, the viability at 24 h, 10 µM in series [2] (10 μM) stood at 99.1 ± 3.1%. Also, in series [2], the viability at 24 h, 50 µM amounted to 102 ± 12.1% and the viability at 24 h, 100 µM was determined as 104 ± 6.5%. Further, the “toxicity on the noncancerous LLC-PK1 cell line (in words)” value (“toxicity” below) in series [3] is “almost complete absence of toxicity”.
As usually defined, the melting point is the temperature, or range, at which the solid turns liquid. `O=C(/C=C/c1ccccc1Cl)c1ccc2c(c1)Nc1ccccc1S2` [Compound 7, (E)-3-(2-Chlorophenyl)-1-(10H-phenothiazin-2-yl)prop-2-en-1-one] yielded a melting point of 202 to 203 °C. The concentration for half-maximal inhibition (IC50) in series [1] (Homo sapiens, 24 h) was less than 20 µM. Besides, the IC50 in series [1] worked out at 18 ± 1.63 µM. In series [2] (10 μM), the viability at 24 h, 10 µM was 100 ± 6.5%. Also, in series [2], the viability at 24 h, 50 µM is 109 ± 10.9% and the viability at 24 h, 100 µM amounted to 94.8 ± 7.6%. For the same compound, the “toxicity” value in series [3] is “almost complete absence of toxicity”.
`O=C(/C=C/c1ccc(Cl)cc1)c1cccs1` [Compound 10] registered a half-inhibitory concentration (IC50) in series [1] (Homo sapiens, 24 h) of 49.6 ± 3.2 µM.
Broadly, the inhibition is the change of the read-out against control, counted positive when it falls. A high value points to a response far below the control. In turn, `COc1cc(/C=C/C(=O)c2ccco2)cc(OC)c1OC` [Compound 14] returned an inhibition at 25 µM in series [1] (Homo sapiens, 25 μM) of 42.9%. Besides, 50 µM produced 26.5% inhibition in series [1] (Homo sapiens, 50 μM). In series [1] (Homo sapiens, 100 μM), the inhibition at 100 µM amounted to 15.1%. In series [1] (Homo sapiens, 24 h), the half-maximal inhibitory concentration (IC50) came to 29.1 ± 1.82 µM.
Compound `CN(C)c1ccc(/C=C/C(=O)c2ccco2)cc1` [Compound 15] came in with a concentration for half-maximal inhibition (IC50) in series [1] (Homo sapiens, 24 h) of 77.3 ± 4.69 µM.
Take `COc1ccc(C(=O)/C=C/c2ccccn2)c(O)c1` [Compound 19, (E)-3-(Pyridin-2-yl)-1-(2-hydroxy-4-methoxyphenyl)prop-2-en-1-one]: the melting point was in the range of 130 to 131 °C. This compound came in with a concentration for half-maximal inhibition (IC50) in series [1] (Homo sapiens, 24 h) of 26.6 ± 1.72 µM.
`O=C(/C=C/c1cccs1)c1ccc2c(c1)Nc1ccccc1S2` [Compound 9, (E)-3-(Thiophen-2-yl)-1-(10H-phenothiazin-2-yl)prop-2-en-1-one] displayed a melting point of 229 to 230 °C. This compound yielded an IC50 in series [1] (Homo sapiens, 24 h) of less than 20 µM. The same compound returned a half-inhibitory concentration (IC50) in series [1] of 12.5 ± 1.74 µM. The viability at 24 h, 10 µM in series [2] (10 μM) came out at 98.8 ± 10.6%. For the same compound, in series [2], the viability at 24 h, 50 µM stood at 98.2 ± 7.3% and the viability at 24 h, 100 µM was 97.1 ± 5%. The “toxicity” value in series [3] is recorded as “almost complete absence of toxicity”.
`COc1ccc(/C=C/C(=O)c2ccc3c(c2)Nc2ccccc2S3)c(OC)c1` [Compound 8, (E)-3-(2,4-Dimethoxyphenyl)-1-(10H-phenothiazin-2-yl)prop-2-en-1-one] had a melting point of 178 to 179 °C. Moreover, the concentration for half-maximal inhibition (IC50) in series [1] (Homo sapiens, 24 h) was less than 20 µM. Moreover, the midpoint of inhibition in series [1], the IC50, lay at 19.7 ± 1.63 µM. In series [2] (10 μM), the viability at 24 h, 10 µM stood at 97.3 ± 10.2%. Moreover, in series [2], the viability at 24 h, 50 µM is 103 ± 6.4% and the viability at 24 h, 100 µM worked out at 105 ± 5.4%. In addition, the “toxicity” value in series [3] was “almost complete absence of toxicity”.
In series [1], “(E)-3-(Pyridin-3-yl)-1-(2-hydroxyphenyl)prop-2-en-1-one [Compound 18]” displayed a half-maximal inhibitory concentration (IC50) of 91.1 ± 2.45 µM.
On the same count and under the same terms, in the case of “(E)-3-(Pyridin-2-yl)-1-(2-hydroxyphenyl)prop-2-en-1-one [Compound 17]” it was 92.9 ± 6.14 µM.
As for `COc1cc(/C=C/C(=O)c2cccs2)cc(OC)c1OC` [Compound 13], the IC50 in series [1] (Homo sapiens, 24 h) is 26.6 ± 1.42 µM.
Turning to `CC(=O)O[C@H]1C(=O)[C@@]2(C)[C@H]([C@H](OC(=O)c3ccccc3)[C@]3(O)C[C@H](OC(=O)[C@H](O)[C@@H](NC(=O)c4ccccc4)c4ccccc4)C(C)=C1C3(C)C)[C@]1(OC(C)=O)CO[C@@H]1C[C@@H]2O` [Paclitaxel, reference compound], the viability at 24 h, 2 µM in series [4] (2 μM (paclitaxel reference)) was found to be 103 ± 6%. The viability at 24 h, 20 µM in series [4] (20 μM (paclitaxel reference)) was determined as 75 ± 3.6%. Further, the 50% inhibitory concentration (IC50) in series [1] (Homo sapiens, 24 h) amounted to 10.8 ± 0.47 µM. For the same compound, in series [2] (10 μM (paclitaxel reference)), the viability at 24 h, 10 µM turned out to be 108 ± 8.2%.
The compound `COc1ccc(C(=O)/C=C/c2cccnc2)c(O)c1` [Compound 20, (E)-3-(Pyridin-3-yl)-1-(2-hydroxy-4-methoxyphenyl)prop-2-en-1-one] showed a melting point of 128 to 129 °C. In addition, inhibition in series [1] (Homo sapiens, 24 h) was half-maximal at 20.8 ± 1.33 µM (IC50).
`O=C(/C=C/c1ccc(OCc2ccccc2)cc1)c1ccc2c(c1)Nc1ccccc1S2` [Compound 2, (E)-3-(4-Benzyloxyphenyl)-1-(10H-phenothiazin-2-yl)prop-2-en-1-one] showed a melting point of 215 to 216 °C.
The same measure, in the same setting: in the case of `O=C(/C=C/c1cccc(Br)c1)c1ccc2c(c1)Nc1ccccc1S2` [Compound 3, (E)-3-(3-Bromophenyl)-1-(10H-phenothiazin-2-yl)prop-2-en-1-one] it was 230 to 232 °C; in that of `CN(C)c1ccc(/C=C/C(=O)c2ccc3c(c2)Nc2ccccc2S3)cc1` [Compound 1, (E)-3-(4-(N,N-Dimethylamino)phenyl)-1-(10H-phenothiazin-2-yl)prop-2-en-1-one], 232 to 233 °C.
